One assay relates to S. avermitilis. The assay can be described thus: Effect of SAM on avermectin production (Exp. 7). The assay is classed as cell-based. Conditions: 1 mM SAM, incubation for 5 days, 25° C. As to the method: (§1) Each Streptomyces species was incubated in its corresponding culture medium according to Table 1, and treated with 1 mM of SAM (Sigma, USA). After incubation for 5 days, antibiotic concentration was measured in each culture medium.

In the next assay the test system is S. peucetius. The assay can be described thus: Effect of SAM on doxorubicin production (Exp. 10). The assay is classed as cell-based. Conditions: 1 mM SAM, incubation for 5 days, 30° C. As to the method: as §1
Another assay relates to S. cinnamonensis. The assay can be described thus: Effect of SAM on monensin production (Exp. 8). The assay is classed as cell-based. The settings on record: 1 mM SAM, incubation for 5 days, 30° C. On the procedure: as §1
The next assay deals with S. griseus. Kind of assay: Effect of SAM on streptomycin production (Exp. 11). The assay is classed as cell-based. Conditions: 1 mM SAM, incubation for 5 days, 30° C. As to the method: as §1
For assay [1], the system named is S. lividans TK23. The assay can be described thus: Effect of externally added SAM on productivity of actinorhodin. The assay is classed as cell-based, Streptomyces lividans. The settings on record: wild type S. lividans TK23, 1 mM commercially available SAM, FIG. 5. On the procedure: Based on the finding that in vivo over-expressed SAM positively affects production yield of actinorhodin in S. lividans TK23, an effect of SAM on productivity of actinorhodin was investigated when commercially available SAM is added directly to culture medium containing S. lividans TK23. As such, wild type S. lividans TK23 was treated with 1 mM of commercially available SAM.

Assay [2] concerns S. aureofaciens. Kind of assay: Effect of SAM on tetracycline production (Exp. 12). The assay is classed as cell-based. Conditions: 1 mM SAM, incubation for 5 days, 28° C. On the procedure: as §1
The next assay concerns S. spectabilis. Kind of assay: Effect of SAM on spectinomycin production (Exp. 9). The assay is classed as cell-based. Conditions: 1 mM SAM, incubation for 5 days, 30° C. As to the method: as §1
Assay [3] deals with S. aureofaciens. The assay can be described thus: Effect of SAM on chlortetracycline production (Exp. 13). The assay is classed as cell-based. Conditions: 1 mM SAM, incubation for 5 days. On the procedure:
as §1

The nature of assay [4]: Assay for activity of SAM-s (HPLC analysis of reaction products). The assay is classed as biochemical, Streptomyces spectabilis ATCC 27741. Conditions: protein expressed in E. coli, 5 mM ATP, 5 mM methionine, 120 min at 30° C. As to the method: In order to analyze activity of “SAM-s”, the gene encoding “SAM-s” was expressed in E. coli, and the resulting translational product, “SAM-s”, was then isolated.
To express the gene encoding “SAM-s” in E. coli, the gene was inserted into a pET-21a vector, and then introduced into E. coli BL21. The expressed gene product, “SAM-s” was isolated using a His-Tag purification system. Thereafter, 10 to 50 μl of the enzyme solution containing the protein “SAM-s” was added to a reaction mixture containing 100 mM of Tris-HCl, 200 mM of KCl, 10 mM of MgCl2, 1 mM DTT, 5 mM ATP, and 5 mM methionine, followed by incubation for 120 min at 30° C. After the incubation, reaction products were analyzed through HPLC using Reverse C18 column. In this regard, the column loaded with sample was initially equilibrated with a solution of 0.1 M of NaH2PO4/acetonitrile at a ratio of 98:2 (V/V), pH 2.65. Then, a second solution comprising 0.15 M NaH2PO4/acetonitrile at a ratio of 74:26 (V/V) was applied with continuous mixing with the first solution, forming a concentration gradient.

In assay [5] the test system is S. lividans TK23. The assay can be described thus: Actinorhodin production in S. lividans TK23 transformed with pSAM-s. The assay is classed as cell-based, Streptomyces lividans. The settings on record: over-expression of SAM-s, incubation for 7 days at 28° C., FIG. 4. On the procedure:
The gene encoding “SAM-s” was first inserted into pWHM3, which is a shuttle vector between E. coli and Streptomyces species, giving an expression vector pSAM-s. The plasmid pSAM-s was then introduced into S. lividans TK23. The resulting transformant, Streptomyces lividans TK-23 harboring pSAM-s, was deposited in the Korean Culture Center of Microorganisms with accession No. KCCM 10397 on Jul. 2, 2002. The transformant was incubated in one liter of a medium including 50 g of glycerol, 5 g of glutamic acid, 21 g of morpholinopropane sulfonic acid, 200 mg of MgSO47H2O, 100 mg of CaCl22H2O, 100 mg NaCi, 82 mg KH2PO4, 9 mg FeSO47H2O, and 2 ml of trace element solution, adjusted to pH 6.5. During incubation for 7 days at 28° C., production yield of actinorhodin, which is a main antibiotic produced from S. lividans TK23, was analyzed.

Turning to `C[S+](CC[C@H](N)C(=O)O)C[C@H]1O[C@@H](n2cnc3c(N)ncnc32)[C@H](O)[C@@H]1O` (stereo partly drawn) [SAM, S-adenosyl-L-methionine], the “Production amount of a treatment group, Avermectin” value with S. avermitilis stood at 25 µg/mL. Also, in the assay with S. peucetius, the “Production amount of a treatment group, Doxorubicin” value was 300 µg/mL. Besides, the “Production amount of a treatment group, Monensin” value in the assay with S. cinnamonensis was 180 µg/mL. The “Production amount of a treatment group, Streptomycin” value with S. griseus was determined as 602 µg/mL. For the same molecule, the “actinorhodin production versus control not treated with SAM” value in the assay with S. lividans TK23 [1] is given as “produces more actinorhodin”. In the assay with S. aureofaciens [2], the “Production amount of a treatment group, Tetracycline” value is 188 µg/mL. For the same molecule, the “Production amount of a treatment group, Spectinomycin” value in the assay with S. spectabilis worked out at 35 µg/mL. In addition, the “Production amount of a treatment group, Chlortetracycline” value in the assay on S. aureofaciens [3] is 130 µg/mL.

B1: SAM-s: enzyme catalyzing SAM biosynthesis from Streptomyces spectabilis ATCC 27741, SEQ ID NO. 2 (protein)
chain: MSRRLFTSESVTEGHPDKIADQISDTILDALLREDPTSRVAVETLITTGLVHVAGEVTTKAYAPIAQLVREKILEIGYDSSKKGFDGASCGVSVSIGAQSPDIAQGVDTAYESRVEGDEDELDRQGAGDQGLMFGYACDETPELMPLPIHLAHRLSRRLSEVRKNGTIPYLRPDGKTQVTIEYDGDKAVRLDTVVVSSQHASDIDLESLLAPDIREFVVEPELKALVEDGIKLVVEPELKALVEDGIKLETEGYRLLVNPTGRFEIGGPMGDAGLTGRKIIIDTYGGMSRHGGGAFSGKDPSKVDRSAAYAMRWVAKNVVAAGLASRCEVQVAYAIGKAEPVGLFVETFGTNTIDTDKIEQAISEVFDLRPAAIIRSLDLLRPIYSQTAAYGHFGRSLPEFTWEKTDRVDALRKAAGLES
modifications: Steptomyces spectabilis ATCC 27741
Take B1: in assay [4], the “activity to synthesize SAM” value is reported as “has an activity to synthesize SAM”. Moreover, in the assay with S. lividans TK23 [5], the “production of actinorhodin in the transformant in comparison with wild type S. lividans” value is “over six times”.

The values above are taken from patent US20050112728A1, “Adenosylmethionine synthetase from streptomyces sp gene sequences coding the same and method for mass production for secondary metabolites including antibiotics thereof” (priority 2001, published 2005).
